One assay concerns PBMC. Nature of the assay: Cytotoxicity against PHA induced human PBMC after 3 days by MTS assay. It is filed as cell-based. Conditions: 72 h. A general note: Tetrazolium assays rely on reduction of a dye to a coloured formazan, in cell work by metabolically active cells.
The nature of assay [1]: Antiproliferative activity against human HL60 cells measured after 3 days by MTS assay. The class given is functional, cell-based. Conditions: HL-60, 72 h.
The nature of assay [2]: Antiproliferative activity against human U937 cells measured after 3 days by MTS assay. It is filed as functional, cell-based. The conditions noted are these: U-937, 72 h.
Assay [3] concerns K562. The experiment in a line: Antiproliferative activity against human K562 cells measured after 3 days by MTS assay. It is filed as functional, cell-based. The conditions noted are these: K562, 72 h.
The subject of the next assay is Jurkat. The experiment in a line: Antiproliferative activity against human Jurkat cells measured after 3 days by MTS assay. It is filed as functional, cell-based. The conditions noted are these: 72 h.
A short description of assay [4]: Antiproliferative activity against human U266 cells measured after 3 days by MTS assay. Conditions: U-266, 72 h. It is filed as functional, cell-based.
Assay [5] is described as follows: Selectivity index, ratio of IC50 for human PBMC to IC50 for human U937 cells. Also on record: species or system U-937.
Assay [6] in a line: Selectivity index, ratio of IC50 for human PBMC to IC50 for human U266 cells. Also on record: species or system U-266.
A short description of assay [7]: Selectivity index, ratio of IC50 for human PBMC to IC50 for human K562 cells.
The test system of assay [8] is K562. Nature of the assay: Induction of apoptosis in human K562 cells at 10 uM measured on day 3 by APC-Annexin-V staining based flow cytometry. It is filed as functional. (In general: A flow cytometer gives signals particle by particle.)
Assay [9] can be described thus: Selectivity index, ratio of IC50 for human PBMC to IC50 for human Jurkat cells.

The term IC50 denotes the concentration that gives 50% inhibition.

Each structure is given as a SMILES string.

Turning to `O=c1[nH]c2ccccc2n1C1CCN(Cc2ccc(-c3nc4cc5[nH]cnc5cc4nc3-c3ccccc3)cc2)CC1`, the half-maximal inhibitory concentration (IC50) in the assay with PBMC is more than 50 µM; in assay [1], 5.5 µM; in [2] it was 8 µM; in the assay with K562 [3], 17 µM; in the assay with Jurkat it was 3.5 µM.

`CCOC(=O)c1cc(-c2ccccc2)n2c1c(-c1ccc(CN3CCC(c4nc5ccc(F)cc5[nH]4)CC3)cc1)nc1ccccc12`: the IC50 in assay [4] was 4 µM; in the assay with PBMC, 50 µM; in [1], 8 µM; in assay [2], 4 µM; in the assay on K562 [3], 7 µM; with Jurkat it was 6 µM. In addition, the “Ratio IC50” value in assay [5] and in assay [6] was 12.5 in each case.

Take `CCOC(=O)c1cc(-c2ccccc2)n2c1c(-c1ccc(CN3CCC(c4nnc(-c5ccccn5)[nH]4)CC3)cc1)nc1ccccc12`: the IC50 in assay [4] is 8 µM; in the assay on PBMC, 50 µM; in [1], 24 µM; in [2], 11 µM; in the assay on K562 [3], 12 µM; in the assay on Jurkat, 5 µM.

With `CCOC(=O)c1cn2c(c(-c3ccc(CN4CCC(c5nc6ccc(F)cc6[nH]5)CC4)cc3)nc3ccccc32)c1-c1ccccc1`, the IC50 in assay [4] is 18 µM; in the assay with PBMC, more than 50 µM; in assay [1] it was 10 µM; in the assay with K562 [3] it was 3 µM; in the assay with Jurkat, 5 µM. Besides, the “Ratio IC50” value in [7] is more than 16.7. In the assay with K562 [8], the Activity turned out to be 92%.

For the compound `CCOC(=O)c1c(-c2ccccc2)cn2c1c(-c1ccc(CN3CCC(c4nnc(-c5ccccn5)[nH]4)CC3)cc1)nc1ccccc12`, the IC50 was more than 50 µM in assay [4]; 16 µM with PBMC; 12 µM in [1]; 7 µM in [2]; 14 µM in the assay on K562 [3]; 5 µM in the assay with Jurkat.

In the case of `CCOC(=O)c1cc2c(-c3ccc(CN4CCC(c5nc6ccc(F)cc6[nH]5)CC4)cc3)nc3ccccc3n2c1-c1ccccc1`, the IC50 is 3 µM in assay [4]; 13 µM in the assay on PBMC; 3 µM in assay [1]; 3 µM in assay [2]; 3 µM with K562 [3]; 3.5 µM in the assay on Jurkat.

For `CCOC(=O)c1cc2c(-c3ccc(CN4CCC(c5nnc(-c6ccccn6)[nH]5)CC4)cc3)nc3ccccc3n2c1-c1ccccc1`, the IC50 in assay [4] amounted to 3 µM; in the assay with PBMC it was 12 µM; in assay [1], 7 µM; in assay [2], 8 µM; with K562 [3], 3.5 µM; in the assay on Jurkat it was 3 µM.

`O=c1[nH]c2ccccc2n1C1CCN(Cc2ccc(-c3nc4ccccc4n4ccc(-c5ccccc5)c34)cc2)CC1`: in assay [1], the IC50 came to 2 µM.

For the compound `CCOC(=O)c1cc2c(-c3ccc(CN4CCC(n5c(=O)[nH]c6ccccc65)CC4)cc3)nc3ccccc3n2c1-c1ccccc1`, the IC50 is more than 50 µM in assay [4]; more than 50 µM in the assay on PBMC; more than 50 µM in [1]; more than 50 µM in [2]; 8.5 µM in the assay on K562 [3]; 6.5 µM with Jurkat.

With `CCOC(=O)c1c(-c2ccccc2)cn2c1c(-c1ccc(CN3CCC(n4c(=O)[nH]c5ccccc54)CC3)cc1)nc1ccccc12`, the IC50 is more than 50 µM in assay [4]; more than 50 µM with PBMC; more than 50 µM in [1]; more than 50 µM in assay [2]; 4 µM with K562 [3]; 41 µM in the assay with Jurkat. Moreover, in assay [7], the “Ratio IC50” value is on record as more than 12.5.

Turning to `CCOC(=O)c1c(-c2ccccc2)cn2c1c(-c1ccc(CN3CCC(c4nc5ccc(F)cc5[nH]4)CC3)cc1)nc1ccccc12`, the IC50 in assay [4] stood at 3.5 µM; with PBMC it was 14 µM; in assay [1], 19 µM; in assay [2], 21 µM; with K562 [3], 3 µM; in the assay on Jurkat, 5 µM.

In the assay on K562 [3], `O=c1[nH]c2ccccc2n1C1CCN(Cc2ccc(-c3nc4ccccc4n4cccc34)cc2)CC1` yielded an IC50 of 4.5 µM. In other words, the single-digit micromolar range.

As to `CCOC(=O)c1cc(-c2ccccc2)n2c1c(-c1ccc(CN3CCC(n4c(=O)[nH]c5ccccc54)CC3)cc1)nc1ccccc12`, the IC50 in [4] is 9 µM; in the assay with PBMC, more than 50 µM; in [1], 6 µM; in [2] it was 9 µM; in the assay with K562 [3], 8 µM; with Jurkat, 4 µM. Moreover, the “Ratio IC50” value in assay [9] is on record as more than 12.5.

For `O=c1[nH]c2ccccc2n1C1CCN(Cc2ccc(-c3nc4ccccc4n4cc5ccccc5c34)cc2)CC1`, the IC50 (in [1]; in the assay on K562 [3]; in the assay with Jurkat) was 5 µM throughout.

For the compound `CCOC(=O)c1cn2c(c(-c3ccc(CN4CCC(c5nnc(-c6ccccn6)[nH]5)CC4)cc3)nc3ccccc32)c1-c1ccccc1`, the half-inhibitory concentration (IC50) was 5 µM in [4]; 8 µM in the assay on PBMC; 5 µM in assay [1]; 7 µM in assay [2]; 7 µM in the assay with K562 [3]; 2 µM in the assay on Jurkat.

With `CCOC(=O)c1cn2c(c(-c3ccc(CN4CCC(n5c(=O)[nH]c6ccccc65)CC4)cc3)nc3ccccc32)c1-c1ccccc1`, the IC50 in assay [4] is 10 µM; with PBMC, 41.3 µM; in [1], 3.5 µM; in assay [2], more than 50 µM; in the assay on K562 [3], 9 µM; with Jurkat it was 4 µM.

`O=c1cc(N2CCOCC2)oc2c(-c3ccccc3)cccc12` [LY-294002]: the IC50 was 46 µM in [4]; more than 50 µM in the assay on PBMC; 14 µM in assay [1]; 14 µM in assay [2]; 38 µM in the assay on K562 [3]; 22 µM in the assay on Jurkat.

The values above are taken from ChEMBL document CHEMBL3779812, “Synthesis and evaluation of the cytotoxic activity of novel ethyl 4-[4-(4-substitutedpiperidin-1-yl)]benzyl-phenylpyrrolo[1,2-a]quinoxaline-carboxylate derivatives in myeloid and lymphoid leukemia cell lines” (Eur J Med Chem, 2016).
